Results: the supplement of paper PMC13380429

What was measured:
[1] = system: U2OS; assay: cell viability relative to DMSO; higher = less toxic; settings: 72 h
[2] = system: HepG2; assay: as above; settings: 72 h
[3] = system: Vero E6; assay: as above; settings: 72 h
[4] = system: Caco-2; assay: as above; settings: 72 h
[5] = system: A549-ACE2 infected with SARS-CoV-2; assay: morphology score (similarity to uninfected cells); higher = more like uninfected cells; settings: 24 h
[6] = system: A549-ACE2 infected with SARS-CoV-2; assay: cell count relative to DMSO; higher = less toxic; settings: 24 h
[7] = system: U2OS; assay: relative viability EC50 (midpoint between 100% and the lowest measured viability); higher = less toxic; settings: 72 h
[8] = system: HepG2; assay: as above; settings: 72 h
[9] = system: Vero E6; assay: as above; settings: 72 h
[10] = system: Caco-2; assay: as above; settings: 72 h
[11] = system: A549-ACE2 infected with SARS-CoV-2; assay: SARS-CoV-2 infection rate relative to DMSO; higher = more infection; settings: 24 h
[12] = system: A549-ACE2; assay: drug-induced phospholipidosis relative to tamoxifen; higher = more phospholipidosis
[13] = system: U2OS; assay: drug sensitivity score (DSS) for viability; higher = more toxic; extreme values may be limits of the assay; settings: 72 h
[14] = system: HepG2; assay: as above; settings: 72 h
[15] = system: Vero E6; assay: as above; settings: 72 h
[16] = system: Caco-2; assay: as above; settings: 72 h

Cc1[nH]cnc1-c1ccc(Cl)cc1 [lofemizole]
Settings | SARS-CoV-2 infection rate, [11] [%] | cell count, [6] [%] | cell viability, [1] [%] | cell viability, [2] [%] | cell viability, [3] [%] | cell viability, [4] [%] | morphology score, [5]
1 nM | – | – | 95.9 | 99.4 | 103 | 98.4 | –
10 nM | – | – | 97.2 | 102 | 97 | 94.9 | –
100 nM | – | – | 97.5 | 105 | 96.5 | 95.2 | –
0.3 µM | 94 | 97 | – | – | – | – | 0.05
1000 nM | – | – | 99.2 | 93 | 96.7 | 98.7 | –
3 µM | 104 | 102 | – | – | – | – | 0.07
10000 nM | – | – | 103 | 107 | 102 | 101 | –
10 µM | 105 | 100 | – | – | – | – | -0.16
30 µM | 100 | 94 | – | – | – | – | -0.13

Settings | drug sensitivity score | relative viability EC50 [µM]
[7] | – | > 10
[8] | – | > 10
[9] | – | > 10
[10] | – | > 10
[13] | 0 | –
[14] | 0 | –
[15] | 0 | –
[16] | 0 | –

drug-induced phospholipidosis [%], [12]
Settings | 0.3 µM | 0.833333 µM | 3.33333 µM | 6.66667 µM | 10 µM | 30 µM
24 h | 3.89 | -1.13 | 0.51 | -0.91 | 0.71 | 5.39
48 h | 4.07 | 0.92 | 2.92 | 3.98 | 3.67 | 11.9
72 h | 4.05 | 0.285 | 0.756 | 2.05 | 2.84 | 12.6
